The text below walks through data of patent US20260174783A1, “HALOBETASOL PROPIONATE-LIDOCAINE FORMULATIONS” (priority 2023, published 2026).

A short description of this series: In vitro permeation test: delivery of Halobetasol Propionate to the skin. In kind it is in vitro ADME. The following applies: Formulations 1 and 2. The source says:
The ability of the formulations of the present invention to deliver the APIs to their active sites was investigated by in vitro permeation tests.

Each structure is given as a SMILES string.

`CCC(=O)O[C@]1(C(=O)CCl)[C@@H](C)C[C@H]2[C@@H]3C[C@H](F)C4=CC(=O)C=C[C@]4(C)[C@@]3(F)[C@@H](O)C[C@@]21C` [Halobetasol Propionate, (6α, 11β, 16β)-21-Chloro-6,9-difluoro-11-hydroxy-16-methyl-17-(1-oxopropoxy) pregna-1,4-diene-3,20-dione]: the “Halobetasol Propionate receiver media concentration” value was “no receiver media concentration”.
